Laboratory results: patent US10550105B2 (Ribon Therapeutics Inc., priority 2018, dated 2020)

What was measured:
Assay in all cases: Growth inhibition of cancer cell lines, 72 hrs (CellTiter-Glo)
Assay type in all cases: cell-based
T3M-10 = conditions: lung, large cell carcinoma
Procedure: (§1) Example C: Inhibition of Cancer Cell Growth by Treatment with PARP7 Inhibitors
(§2) Table A-2 and Table A-3 (below) represents the concentration that causes 50% growth inhibition (GI50) in a panel of cancer cell lines with Compound 18B and Compound 561. Cells were plated into 384-well plates at a pre-specified density in fetal bovine serum-containing media. Cells were treated with compound or vehicle (DMSO) 24 hrs later, and a day zero plate was collected for analysis. Test compound plates were incubated continuously for 72 hrs (Table A-2) or 144 hours (Table A-3) cell growth was assessed using a luminescent cell viability assay (CellTiter-Glo, Promega). The GI50was determined by correcting for the cell count at time zero (time of treatment) and plotting data as percent growth relative to vehicle-treated cells.

YD-10B = conditions: upper aerodigestive tract, squamous cell carcinoma
Procedure: as §1, §2

GSS = conditions: stomach, adenocarcinoma
Procedure: as §1, §2

CFPAC-1 = conditions: Homo sapiens, pancreas, ductal carcinoma
Procedure: as §1, §2

OVISE = conditions: ovary, clear cell carcinoma
Procedure: as §1, §2

NCI-H2228 = conditions: Homo sapiens, lung, adenocarcinoma
Procedure: as §1, §2

FaDu = conditions: Homo sapiens, upper aerodigestive tract, squamous cell carcinoma
Procedure: as §1, §2

HCC1937 = conditions: Homo sapiens, breast, ductal carcinoma
Procedure: as §1, §2

TUHR10TKB = conditions: kidney, not specified
Procedure: as §1, §2

YH-13 = conditions: central nervous system, astrocytoma Grade IV
Procedure: as §1, §2

COR-L105 = conditions: Homo sapiens, lung, adenocarcinoma
Procedure: as §1, §2

NCI-H1373 = conditions: Homo sapiens, lung, adenocarcinoma
Procedure: as §1, §2

NCI-H2347 = conditions: Homo sapiens, lung, adenocarcinoma
Procedure: as §1, §2

NCI-H2066 = conditions: lung, small cell carcinoma
Procedure: as §1, §2

SK-BR-3 = conditions: Homo sapiens, breast, not specified
Procedure: as §1, §2

NCI-H1437 = conditions: Homo sapiens, lung, adenocarcinoma
Procedure: as §1, §2

NCI-H1930 = conditions: Homo sapiens, lung, small cell carcinoma
Procedure: as §1, §2

NCI-H441 = conditions: Homo sapiens, lung, adenocarcinoma
Procedure: as §1, §2

NCI-H2081 = conditions: Homo sapiens, lung, not specified
Procedure: as §1, §2

NCI-H1975 = conditions: Homo sapiens, lung, non small cell carcinoma
Procedure: as §1, §2

EFE-184 = conditions: Homo sapiens, endometrium, not specified
Procedure: as §1, §2

LUDLU-l = conditions: lung, squamous cell carcinoma
Procedure: as §1, §2

Caki-1 = conditions: Homo sapiens, kidney, clear cell renal cell carcinoma
Procedure: as §1, §2

NCI-H596 = conditions: Homo sapiens, lung, mixed adenosquamous carcinoma
Procedure: as §1, §2

EBC-1 = conditions: Homo sapiens, lung, squamous cell carcinoma
Procedure: as §1, §2

Panc 03.27 = conditions: Homo sapiens, PANC-03-27, pancreas, ductal carcinoma
Procedure: as §1, §2

HCC827 = conditions: Homo sapiens, lung, adenocarcinoma
Procedure: as §1, §2

TE-8 = conditions: Homo sapiens, oesophagus, squamous cell carcinoma
Procedure: as §1, §2

EN = conditions: endometrium, not specified
Procedure: as §1, §2

KMRC-3 = conditions: kidney, clear cell renal cell carcinoma
Procedure: as §1, §2

LS123 = conditions: Homo sapiens, LS-123, large intestine, adenocarcinoma
Procedure: as §1, §2

SW620 = conditions: Homo sapiens, SW-620, large intestine, adenocarcinoma
Procedure: as §1, §2

JHOS-2 = conditions: ovary, adenocarcinoma
Procedure: as §1, §2

CAL 27 = conditions: Homo sapiens, upper aerodigestive tract, squamous cell carcinoma
Procedure: as §1, §2

NCI-H1963 = conditions: Homo sapiens, lung, small cell carcinoma
Procedure: as §1, §2

TYK-nu = conditions: ovary, undifferentiated carcinoma
Procedure: as §1, §2

HCC-2279 = conditions: lung, adenocarcinoma
Procedure: as §1, §2

HCC-1195 = conditions: lung, mixed adenosquamous carcinoma
Procedure: as §1, §2

HCC1187 = conditions: Homo sapiens, breast, ductal carcinoma
Procedure: as §1, §2

HCC1599 = conditions: Homo sapiens, breast, ductal carcinoma
Procedure: as §1, §2

COLO-680N = conditions: Homo sapiens, oesophagus, squamous cell carcinoma
Procedure: as §1, §2

MDA-MB-468 = conditions: Homo sapiens, breast, not specified
Procedure: as §1, §2

IA-LM = conditions: lung, large cell carcinoma
Procedure: as §1, §2

KMBC-2 = conditions: urinary tract, not specified
Procedure: as §1, §2

GI50 (T3M-10): < 100 nM | GI50 (YD-10B): < 100 nM | GI50 (GSS): 100 to 1000 nM | GI50 (CFPAC-1): 100 to 1000 nM | GI50 (OVISE): 100 to 1000 nM | GI50 (NCI-H2228): 100 to 1000 nM | GI50 (FaDu): 100 to 1000 nM | GI50 (HCC1937): < 100 nM | GI50 (TUHR10TKB): < 100 nM | GI50 (YH-13): < 100 nM | GI50 (COR-L105): 100 to 1000 nM | GI50 (NCI-H1373): < 100 nM | GI50 (NCI-H2347): < 100 nM | GI50 (NCI-H2066): 100 to 1000 nM | GI50 (SK-BR-3): 100 to 1000 nM | GI50 (NCI-H1437): < 100 nM | GI50 (NCI-H1930): < 100 nM | GI50 (NCI-H441): 100 to 1000 nM | GI50 (NCI-H2081): 100 to 1000 nM | GI50 (NCI-H1975): 100 to 1000 nM | GI50 (EFE-184): < 100 nM | GI50 (LUDLU-l): 100 to 1000 nM | GI50 (Caki-1): < 100 nM | GI50 (NCI-H596): < 100 nM | GI50 (EBC-1): < 100 nM | GI50 (Panc 03.27): < 100 nM | GI50 (HCC827): 100 to 1000 nM | GI50 (TE-8): < 100 nM | GI50 (EN): 100 to 1000 nM | GI50 (KMRC-3): 100 to 1000 nM | GI50 (LS123): 100 to 1000 nM | GI50 (SW620): 100 to 1000 nM | GI50 (JHOS-2): < 100 nM | GI50 (CAL 27): < 100 nM | GI50 (NCI-H1963): < 100 nM | GI50 (TYK-nu): < 100 nM | GI50 (HCC-2279): 100 to 1000 nM | GI50 (HCC-1195): 100 to 1000 nM | GI50 (HCC1187): 100 to 1000 nM | GI50 (HCC1599): 100 to 1000 nM | GI50 (COLO-680N): < 100 nM | GI50 (MDA-MB-468): < 100 nM | GI50 (IA-LM): < 100 nM | GI50 (KMBC-2): 100 to 1000 nM
Compound: N#Cc1ccc(N2CCN(C(=O)c3cccc(OC[C@@H]4c5ccccc5CN4c4cn[nH]c(=O)c4C(F)(F)F)c3)CC2)nc1 (single isomer, unassigned) [Example 18 Isomer B]
